Laboratory results published in PMC11684029, “Discovery of VU6024578/BI02982816: An mGlu1 Positive Allosteric Modulator with Efficacy in Preclinical Antipsychotic and Cognition Models” (Journal of Medicinal Chemistry, 2024).
Entries after “also recorded” stand apart in the source; their conditions may differ.

Experiments:
PDGF = experiment: Eurofins radioligand binding panel; design: species or system mouse; conditions: agonist radioligand
Description: (§1) Table S1. Eurofins Lead Profiling Screen Data
(§2) This is a radioligand binding panel of 80 targets including GPCRs, ion channels, transporters and nuclear hormones. Biochemical assay results are presented as the percent inhibition of specific […]
(§3) Results showing an inhibition or stimulation higher than 50% are considered to represent significant effect and are highlighted

sst (non-selective) = experiment: Eurofins radioligand binding panel; design: species or system mouse; conditions: agonist radioligand
Description: as §1, §2, §3

[1] = glutathione trapping of reactive intermediates; type: in vitro ADME
Description: Across species, 19d had acceptable fraction unbound in both plasma (fu (plasma): 0.03 (human), 0.041 (rat), 0.025 (cyno), 0.039 (dog) and 0.056 (mouse)) and brain (fu (brain): 0.034 (rat) and 0.081 (mouse)).
In Vitro Glutathione Conjugates of 19d
Figure S1. 19d was incubated in rat and human liver microsomes for 1 hr (with and without
NADPH) with 20 µM glutathione.
conjugates, most likely due to reactive intermediate formation from the 2-furanyl southern […]

BB (non-selective) = experiment: Eurofins radioligand binding panel; design: species or system rat; conditions: agonist radioligand
Description: as §1, §2
(§4) Results showing an inhibition or stimulation higher than 50% are considered to represent significant effect and are highlighted […]
(§5) Target / Protein Species % Inhibition at 10 […]

[2] = system: Adrenergic alpha 2 (non-selective); experiment: Eurofins radioligand binding panel; design: species or system rat; conditions: antagonist radioligand
Description: as §1, §2, §4, §5

[3] = system: Adrenergic alpha 1 (non-selective); experiment: Eurofins radioligand binding panel; design: species or system rat; conditions: antagonist radioligand
Description: as §1, §2, §4, §5

rats = experiment: MK-801 induced disruption of novel object recognition; type: in vivo; conditions: rat, p.o.
Description: Based on our previous work with the mGlu1 PAM 4,[6]−[9],[14]−[19] we first evaluated the ability of 19d to reverse MK-801 disruptions of novel object recognition (NOR) in rats (Figure 6).
Figure 6 Rat MK-801 induced disruption of novel object recognition and reversal by VU6024578 (19d). MK-801 (0.5 mg/kg IP) induced a robust disruption of NOR, which was dose-dependently reversed by oral administration (10% tween 80) of 19d.
The animals are habituated to the novel object arenas for 1 day prior to testing. This is accomplished by placing the animal in the arena with no objects for 10 min and then placed back into the home cage. The arena is then cleaned with 70% ethanol in between animals. The day of the test the animals are habituated to the dosing room for 2 h. The animals were administered VU6024578 (1–10 mg/kg p.o.) or vehicle (10% Tween 80) and were placed back into their homecage for 60 min. The animals were then injected with MK-801 (0.075 mg/kg 1 mL/kg s.c.) and placed back in the homecage for 30 min. […] The activity of the animals are recorded and the time spent exploring each of the objects is scored by a blinded observer. Recognition index is determined by subtracting […] divided by total time spent exploring.

C57BL/6JRj mice = experiment: N1 sensory gating, MK-801 induced deficit; type: in vivo; conditions: mouse, 10 mg/kg s.c.
Description: We have also employed here event-related potentials (ERPs) and auditory-evoked oscillations, which serve as critical translational biomarkers, to assess the impact of our investigational drug on sensory processing and cognitive functions, providing valuable data on its potential efficacy in treating disorders like schizophrenia. Detailed description of the methodology, setup specifications and recording procedure and analysis of the 40 Hz auditory steady-state response (ASSR) protocol can be found in Schuelert et al.[27] […] Reduced entrainment of gamma oscillation reflects abnormalities in basic sensory registration and processing but is also associated with impaired higher cognitive functions.[32] ASSR can also be reliably impaired preclinically by different NMDA receptor antagonists.[33],[34] […] Abnormalities associated with the filtering or “gating” of sensory information are among the most consistent findings in schizophrenia research.[35] […]
Mice were placed in a plexiglass cage in an attenuated sound box and allowed to adapt to their environment for 20 min before subcutaneous administration of VU6024578 0.8, 4, and 10 mg/kg or vehicle (20% HP-β-CD in water). […] An infrared sensor on the Neurologger recorded the infrared trigger signals and trigger signals were saved in an individual trigger channel. […]

Structure (SMILES): Cn1nc(-c2ccnn2C)cc1CNC(=O)c1cc(-c2ccco2)ccc1Cl [Compound 19d, 2-Chloro-N-((1,2′-dimethyl-1H,2’H-[3,3′-bipyrazol]-5-yl)methyl)-5-(furan-2-yl)benzamide]
- % Inhibition at 10 µM (PDGF): -2%
- % Inhibition at 10 µM (sst (non-selective)): -12%
- glutathione conjugates ([1]; human liver microsomes with glutathione): multiple glutathione; also recorded: a number of minor glutathione conjugates with four involving the furanyl ring
- glutathione conjugates ([1]; rat liver microsomes with glutathione): multiple glutathione; also recorded: a number of minor glutathione conjugates with four involving the furanyl ring
- % Inhibition at 10 µM (BB (non-selective)): -20%
- % Inhibition at 10 µM [2]: 1%
- % Inhibition at 10 µM [3]: 19%
- minimum effective dose (MED), MK-801 disrupted NOR (rats): 10 mg/kg
- N1 sensory gating deficit induced by MK-801 (C57BL/6JRj mice): reversed
